Reference: article doi:10.1101/2024.01.03.574093v2 (biorxiv, 2024)
Read-outs that look alike come from different tables or passages of the source. *1 amine or outer side, *2 acyl side, *3 side chain or, on linkers, in order; H or OH if unused. Where a SMILES comes first, the peptide text is derived from it. [ ]: non-standard residue; d: D form. The star is where a group is joined. X1 = Cc1nc(N[*:1])sc1-c1cc(C(=O)[*:2])n[nH]1; Bz = O=C(c1ccccc1)*

Columns and labels:
Assay in all cases: cell-based
JHR (GCE:TAI) [1] = molecular target: T1, JHR (GCE:TAI) (Drosophila melanogaster, UniProt Q9VXW7); details: Drosophila Kc167, read-out: JHR Efficacy [%]
T1 sequence (Q9VXW7 1-959): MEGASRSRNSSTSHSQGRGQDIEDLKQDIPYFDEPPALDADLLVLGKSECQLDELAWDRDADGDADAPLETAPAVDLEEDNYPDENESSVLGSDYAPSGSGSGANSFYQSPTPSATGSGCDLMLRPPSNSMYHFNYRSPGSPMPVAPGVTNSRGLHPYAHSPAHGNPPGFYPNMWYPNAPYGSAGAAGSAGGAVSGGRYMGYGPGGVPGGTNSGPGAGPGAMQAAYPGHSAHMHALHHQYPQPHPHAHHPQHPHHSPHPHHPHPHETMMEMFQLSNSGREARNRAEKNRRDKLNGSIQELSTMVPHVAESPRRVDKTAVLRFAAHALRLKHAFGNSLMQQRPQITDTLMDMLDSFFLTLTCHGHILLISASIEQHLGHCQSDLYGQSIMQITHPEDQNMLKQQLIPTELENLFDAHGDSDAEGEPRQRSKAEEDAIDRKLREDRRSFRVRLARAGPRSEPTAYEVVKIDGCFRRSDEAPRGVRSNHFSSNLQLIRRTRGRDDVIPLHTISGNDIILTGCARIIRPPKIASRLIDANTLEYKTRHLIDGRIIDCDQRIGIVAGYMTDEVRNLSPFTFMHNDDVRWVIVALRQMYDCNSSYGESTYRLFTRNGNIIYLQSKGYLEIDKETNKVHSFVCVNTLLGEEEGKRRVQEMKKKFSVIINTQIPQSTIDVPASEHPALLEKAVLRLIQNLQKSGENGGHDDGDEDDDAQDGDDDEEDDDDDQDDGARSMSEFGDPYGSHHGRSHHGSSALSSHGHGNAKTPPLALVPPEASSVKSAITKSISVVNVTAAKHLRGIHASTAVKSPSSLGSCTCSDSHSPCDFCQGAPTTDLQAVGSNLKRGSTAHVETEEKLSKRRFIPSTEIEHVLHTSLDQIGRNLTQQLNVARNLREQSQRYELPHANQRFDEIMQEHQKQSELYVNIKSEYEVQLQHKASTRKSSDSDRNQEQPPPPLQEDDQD
T1 sequence (Q9VLD9 1-2026 partner): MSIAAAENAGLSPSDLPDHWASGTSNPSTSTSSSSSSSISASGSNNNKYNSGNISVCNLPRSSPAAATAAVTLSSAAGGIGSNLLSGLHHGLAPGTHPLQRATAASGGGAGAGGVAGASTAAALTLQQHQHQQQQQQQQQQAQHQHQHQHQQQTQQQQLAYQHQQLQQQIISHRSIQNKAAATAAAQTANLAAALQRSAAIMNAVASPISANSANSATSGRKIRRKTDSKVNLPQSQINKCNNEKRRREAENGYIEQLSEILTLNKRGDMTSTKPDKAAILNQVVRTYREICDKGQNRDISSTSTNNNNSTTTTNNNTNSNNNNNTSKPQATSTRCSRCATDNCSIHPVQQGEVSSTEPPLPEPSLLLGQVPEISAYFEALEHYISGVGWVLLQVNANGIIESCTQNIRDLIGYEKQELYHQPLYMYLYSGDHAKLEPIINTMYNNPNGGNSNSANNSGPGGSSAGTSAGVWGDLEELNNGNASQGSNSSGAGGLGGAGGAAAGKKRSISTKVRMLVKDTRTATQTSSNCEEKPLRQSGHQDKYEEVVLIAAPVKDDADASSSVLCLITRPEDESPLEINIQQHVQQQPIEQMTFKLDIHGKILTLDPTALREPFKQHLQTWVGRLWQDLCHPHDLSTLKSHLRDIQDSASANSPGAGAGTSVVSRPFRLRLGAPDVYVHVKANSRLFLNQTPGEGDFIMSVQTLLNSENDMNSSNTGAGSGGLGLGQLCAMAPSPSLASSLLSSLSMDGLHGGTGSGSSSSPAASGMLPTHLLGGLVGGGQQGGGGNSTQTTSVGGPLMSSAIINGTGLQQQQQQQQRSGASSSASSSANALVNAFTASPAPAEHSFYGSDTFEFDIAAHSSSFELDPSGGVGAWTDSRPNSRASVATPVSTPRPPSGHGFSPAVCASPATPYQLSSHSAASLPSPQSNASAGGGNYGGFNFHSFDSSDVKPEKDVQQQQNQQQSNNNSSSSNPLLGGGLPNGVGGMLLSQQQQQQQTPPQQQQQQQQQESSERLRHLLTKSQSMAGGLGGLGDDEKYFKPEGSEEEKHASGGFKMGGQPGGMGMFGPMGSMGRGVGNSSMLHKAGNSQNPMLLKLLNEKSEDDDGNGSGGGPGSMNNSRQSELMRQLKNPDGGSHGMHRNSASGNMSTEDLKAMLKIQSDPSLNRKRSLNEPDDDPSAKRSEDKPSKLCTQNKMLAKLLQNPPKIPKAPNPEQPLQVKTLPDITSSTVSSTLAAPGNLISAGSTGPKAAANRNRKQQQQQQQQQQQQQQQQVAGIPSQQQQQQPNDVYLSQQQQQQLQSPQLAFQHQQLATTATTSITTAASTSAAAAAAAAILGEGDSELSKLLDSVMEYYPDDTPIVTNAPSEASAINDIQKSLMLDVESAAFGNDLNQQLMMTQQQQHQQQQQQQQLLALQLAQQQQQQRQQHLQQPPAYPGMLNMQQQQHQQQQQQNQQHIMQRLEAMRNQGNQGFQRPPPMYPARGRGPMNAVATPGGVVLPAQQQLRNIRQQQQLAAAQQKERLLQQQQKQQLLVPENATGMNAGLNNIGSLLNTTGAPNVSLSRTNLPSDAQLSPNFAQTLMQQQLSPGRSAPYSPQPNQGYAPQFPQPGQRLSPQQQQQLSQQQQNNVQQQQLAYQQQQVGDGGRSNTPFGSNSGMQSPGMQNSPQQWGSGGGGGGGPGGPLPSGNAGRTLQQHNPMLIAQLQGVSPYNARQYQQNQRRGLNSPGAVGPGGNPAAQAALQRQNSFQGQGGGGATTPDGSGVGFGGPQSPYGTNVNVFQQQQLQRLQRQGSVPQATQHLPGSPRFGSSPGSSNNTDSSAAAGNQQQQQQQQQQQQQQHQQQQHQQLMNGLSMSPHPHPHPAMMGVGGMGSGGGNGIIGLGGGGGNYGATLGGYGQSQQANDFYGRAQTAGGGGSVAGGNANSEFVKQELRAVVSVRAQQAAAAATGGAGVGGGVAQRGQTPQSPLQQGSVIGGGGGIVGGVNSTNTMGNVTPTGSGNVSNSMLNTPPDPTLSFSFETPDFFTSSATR

human AHR [2] = molecular target: T2, human AHR (Homo sapiens, UniProt P35869); set-up: species or system HepG2 (AZ-AHR); details: HepG2, read-out: AHR Efficacy [%]
T2 sequence (P35869 11-848): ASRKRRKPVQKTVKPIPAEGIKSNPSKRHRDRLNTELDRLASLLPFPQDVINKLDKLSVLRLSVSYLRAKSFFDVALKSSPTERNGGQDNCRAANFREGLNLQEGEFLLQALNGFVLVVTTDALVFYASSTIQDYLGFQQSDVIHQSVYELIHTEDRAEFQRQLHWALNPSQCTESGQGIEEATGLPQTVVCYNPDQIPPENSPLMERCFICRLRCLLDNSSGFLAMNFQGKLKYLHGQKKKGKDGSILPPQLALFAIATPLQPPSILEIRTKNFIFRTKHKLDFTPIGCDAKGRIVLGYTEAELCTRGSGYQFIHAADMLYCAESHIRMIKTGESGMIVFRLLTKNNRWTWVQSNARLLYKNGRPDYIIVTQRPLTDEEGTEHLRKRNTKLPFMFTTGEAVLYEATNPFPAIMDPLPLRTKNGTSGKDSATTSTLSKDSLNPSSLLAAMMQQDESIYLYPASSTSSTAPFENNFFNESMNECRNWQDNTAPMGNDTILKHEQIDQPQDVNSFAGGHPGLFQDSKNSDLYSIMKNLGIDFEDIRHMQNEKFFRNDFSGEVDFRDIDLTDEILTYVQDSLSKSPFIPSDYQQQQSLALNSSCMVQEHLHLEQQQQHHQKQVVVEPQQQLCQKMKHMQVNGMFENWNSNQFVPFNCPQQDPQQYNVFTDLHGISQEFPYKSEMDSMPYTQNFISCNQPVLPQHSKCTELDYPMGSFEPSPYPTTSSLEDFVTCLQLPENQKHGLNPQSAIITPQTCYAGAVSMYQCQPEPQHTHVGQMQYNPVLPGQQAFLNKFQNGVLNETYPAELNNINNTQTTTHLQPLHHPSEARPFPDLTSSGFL
T2 sequence (P27540 2-789 partner): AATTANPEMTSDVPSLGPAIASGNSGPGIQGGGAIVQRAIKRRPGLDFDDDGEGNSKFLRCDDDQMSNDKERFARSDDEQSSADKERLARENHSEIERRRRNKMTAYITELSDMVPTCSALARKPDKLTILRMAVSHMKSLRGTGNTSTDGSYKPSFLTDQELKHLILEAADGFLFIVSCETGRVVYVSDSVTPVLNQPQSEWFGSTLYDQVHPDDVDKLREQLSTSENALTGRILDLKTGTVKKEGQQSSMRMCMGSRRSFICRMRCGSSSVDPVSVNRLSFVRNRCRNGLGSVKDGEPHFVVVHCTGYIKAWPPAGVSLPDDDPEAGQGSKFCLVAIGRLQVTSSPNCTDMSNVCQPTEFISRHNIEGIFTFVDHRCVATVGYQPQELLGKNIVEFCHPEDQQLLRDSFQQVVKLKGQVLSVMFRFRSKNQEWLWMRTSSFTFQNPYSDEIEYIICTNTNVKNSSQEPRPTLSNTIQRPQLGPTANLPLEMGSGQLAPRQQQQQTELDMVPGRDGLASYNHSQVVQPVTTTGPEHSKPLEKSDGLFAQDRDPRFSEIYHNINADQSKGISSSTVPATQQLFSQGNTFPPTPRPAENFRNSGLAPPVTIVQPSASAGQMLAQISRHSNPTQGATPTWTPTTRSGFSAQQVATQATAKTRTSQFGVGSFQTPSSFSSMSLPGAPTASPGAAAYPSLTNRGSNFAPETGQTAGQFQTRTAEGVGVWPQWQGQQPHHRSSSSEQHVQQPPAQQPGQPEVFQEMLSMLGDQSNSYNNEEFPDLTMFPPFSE

human AHR [3] = molecular target: T2, human AHR; set-up: species or system HepG2 (AZ-AHR); details: HepG2, read-out: AHR Efficacy [%], AGO
JHR (GCE:TAI) [4] = molecular target: T1, JHR (GCE:TAI); details: Drosophila Kc167, read-out: JHR Efficacy [%]; remark: listed apart in the source

Compound | Emax (JHR (GCE:TAI) [1]) | Emax (human AHR [2]) | Emax (human AHR [3]) | Emax (JHR (GCE:TAI) [4])
Cc1nc(-c2ccsc2)sc1C(=O)Nc1cnn(C)c1 [cmpd 1.1] | – | – | 19% | 183%
CC(C)c1c(C(=O)NCC2CCCO2)nnn1-c1ccc(Br)cc1 (stereo not shown) [cmpd 1.3] | – | – | – | 254%
CC(COc1ccc(Oc2ccccc2)cc1)Oc1ccccn1 (stereo not shown) [pyriproxyfen] | 62% | – | – | –
Cc1c(C(=O)NCCc2cccnc2)oc2ccc(F)cc12 [cmpd 2.8] | 126% | 87% | – | –
Cc1nc(NC(=O)c2ccccc2)sc1-c1cc(C(=O)NCC(=O)N[C@H](CCCN=C(N)N)C(=O)NCC(=O)N[C@H](CC(=O)O)C(=O)N[C@H](CC(=O)O)C(=O)N[C@H](CC(=O)O)C(N)=O)n[nH]1 [cmpd 2.1] (Bz-[X1]G[dR]G[dD][dD][dD]-NH2) | – | – | 52% | 143%
CN(C(=O)CN1CCOC(c2nccs2)C1)c1nccs1 (stereo not shown) [cmpd 1.4] | – | – | – | 266%

Other lines, results leading:

Emax (JHR (GCE:TAI) [1]) | Emax (human AHR [2]) | Emax (human AHR [3]) | Emax (JHR (GCE:TAI) [4]) | Compound
110% | 103% | – | – | CC(Sc1nccn1C)C(=O)Nc1nc(-c2ccccc2)cs1 (stereo not shown) [cmpd 2.2]
128% | 30% | – | – | Cc1csc(CCNC(=O)c2cnc(-c3ccccc3)nc2)n1 [cmpd 2.10]
109% | 45% | – | – | CC(NC(=O)CSCc1ccccc1)c1ccc(-n2ccnc2)cc1 (stereo not shown) [cmpd 2.12]
76% | 14% | – | – | O=C(NCCCn1cccn1)c1ccc(C2CCCCC2)cc1 [cmpd 2.6]
83% | – | – | – | O=C(CCSc1nnc2ccccn12)NC(=O)NCc1ccccc1 [cmpd 1.2]
88% | – | – | – | O=C(Nc1ccc(-c2nccs2)cc1)c1ccccc1C(F)(F)F [cmpd 2.3]
– | – | – | 85% | Cc1c(C(=O)Nc2ccc3ncccc3c2)sc2ccccc12 [2.7, cmpd 2.7]
70% | 19% | – | – | OC(COc1ccc2cc(Br)ccc2c1)Cn1cccn1 (stereo not shown) [cmpd 2.9]
